Source: patent US20240009304A1, “USE OF NGF ANTIBODY IN CIPN PAIN” (Dartsbio Pharmaceuticals Ltd., priority 2020, published 2024)
Where “and” joins values, the source holds several entries; their conditions need not be identical. Equal entries are not always repeated.

What was measured:
Assay type in all cases: in vivo
[1] = system: paclitaxel-induced neuropathic pain model in SD rats; assay: acetone cold allodynia, paclitaxel-induced neuropathic pain model; conditions: s.c.
Procedure: (§1) All female SD rats were measured on day −5 (D-5) and day −4 (D-4) for basal values of von Frey mechanical allodynia and acetone cold allodynia (the day on formally establishing the model with paclitaxel administration was recorded as DO). SD rats were randomly divided into 5 groups according to body weight, which were blank control group, vehicle control (Vehicle control), s.c., D-3/D3/D9 group, DS002 0.1 mg/kg, s.c., D-3/D3/D9 group, DS002 0.5 mg/kg, s.c., D-3/D3/D9 group, DS002 2.5 mg/kg, s.c., D-3/D3/D9 group, respectively. Except for the blank control group, the other groups of animals were injected intraperitoneally with a chemotherapeutic agent solution on DO, D2, D4 and D6, respectively, to establish a chemotherapeutic agent-induced neuropathic pain model in SD rats. Wherein, von Frey is a stimulating material used in the measurement method of mechanical stimulation pain threshold; acetone is a stimulating substance used in the measurement method of cold pain threshold.
(§2) Except for the blank control group, the other four groups were administered subcutaneously with DS002 on D-3, D3 and D9, respectively, and the von Frey echanical allodynia and acetone cold allodynia were measured on D7, D14 and D8, D15, respectively. The mechanical paw withdrawal threshold and the score and frequency of acetone-induced foot withdrawal behavior at the corresponding time point were recorded (for testing and calculation methods, see Yoon et al., pain, 59(3), 369-376. & Flatters et al., pain, 2004, 109 (1-2):150-161).
(§3) The above experimental method was used, except for the blank control group, the other groups of animals were injected intraperitoneally with a chemotherapeutic agent solution (4 mg/kg) on DO, D2, D4 and D6, respectively, to establish a paclitaxel-induced neuropathic pain model in SD rats, namely the CIPN pain model.

[2] = system: cisplatin-induced neuropathic pain model in SD rats; assay: von Frey mechanical allodynia, cisplatin-induced neuropathic pain model; conditions: for Mean value of mechanical paw withdrawal threshold: s.c.
Procedure: as §1, §2
(§4) With reference to the above-mentioned experimental method and Example 1, except for the blank control group, the animals of other groups were injected with a cisplatin solution (4 mg/kg) in the tail veins on DO and D6, respectively, to establish a cisplatin-induced neuropathic pain model in SD rats, namely the CIPN pain model.
(§5) The basal values of the mechanical allodynia and cold allodynia were measured on day 5 (D-5) and day 4 (D-4) before modeling. On day 3 (D-3), the normal rats were divided into 4 groups by random block method and administered according to their body weight. The average weight of animals in each group after grouping was about 250 g. As for the animals of blank control group, vehicle control, s.c., D-3/D3/D9/D16 group, test sample DS002, 0.02 mg/kg, s.c., D-3/D3/D9/D16 group and test sample DS002, 0.5 mg/kg, s.c., D-3/D3/D9/D16 group, the basal values of mechanical paw withdrawal threshold were 26.00±0.00 g, 23.95±1.63 g, 23.50±1.68 g and 22.77±1.71 g, respectively; the basal values of acetone-induced foot withdrawal behavior total score were 0.50±0.34, 0.55±0.31, 0.27±0.19 and 0.55±0.28, respectively; the basal values of the response frequency were 6.00±4.27%, 7.27±4.07%, 3.64±2.44% and […], respectively.

[3] = system: vincristine-induced neuropathic pain model in SD rats; assay: acetone cold allodynia, vincristine-induced neuropathic pain model; conditions: s.c.
Procedure: as §1, §2
(§6) With reference to the above-mentioned experimental method and Example 1, except for the blank control group, the other groups of animals were injected intraperitoneally with a vincristine solution (0.1 mg/kg) from DO to D9, respectively, to establish a vincristine-induced neuropathic pain model in SD rats, namely, the CIPN pain model.

[4] = system: vincristine-induced neuropathic pain model in SD rats; assay: von Frey mechanical allodynia, vincristine-induced neuropathic pain model; conditions: for Mean value of mechanical paw withdrawal threshold: s.c.
Procedure: as §1, §2, §6

[5] = system: cisplatin-induced neuropathic pain model in SD rats; assay: acetone cold allodynia, cisplatin-induced neuropathic pain model; conditions: for Mean value of response frequency of cold allodynia / Mean value of acetone-induced foot withdrawal behavior total score: s.c.
Procedure: as §2, §4, §5

[6] = system: paclitaxel-induced neuropathic pain model in SD rats; assay: von Frey mechanical allodynia, paclitaxel-induced neuropathic pain model; conditions: for Mean value of mechanical paw withdrawal threshold: s.c., D-3/D3/D9
Procedure: as §1, §2, §3

[7] = 0.1 mg/kg, D-3/D3/D9, D-4 basal value before administration
[8] = 0.5 mg/kg, D-3/D3/D9, D-4 basal value before administration
[9] = 2.5 mg/kg, D-3/D3/D9, D-4 basal value before administration
[10] = 0.5 mg/kg, D-3/D3/D9/D16, D22, listed as D5002

DS002: humanized recombinant monoclonal antibody targeting nerve growth factor, IgG1 subtype, kappa light chain; heavy/light chain SEQ ID NO:3 and 4
Mean value of acetone-induced foot withdrawal response score ([1]; 0.1 mg/kg, D-3/D3/D9, D8): 3.70 | Mean value of response frequency of cold allodynia ([1]; 0.1 mg/kg, D-3/D3/D9, D8): 63.50% | Mean value of acetone-induced foot withdrawal response score ([1]; 0.1 mg/kg, D-3/D3/D9, D15): 1.80 | Mean value of response frequency of cold allodynia ([1]; 0.1 mg/kg, D-3/D3/D9, D15): 33.40% | Mean value of acetone-induced foot withdrawal response score [1, 7]: 0.60 | Mean value of response frequency of cold allodynia [1, 7]: 13.40% | Mean value of acetone-induced foot withdrawal response score ([1]; 0.5 mg/kg, D-3/D3/D9, D8): 2.50 | Mean value of response frequency of cold allodynia ([1]; 0.5 mg/kg, D-3/D3/D9, D8): 50.10% | Mean value of acetone-induced foot withdrawal response score ([1]; 0.5 mg/kg, D-3/D3/D9, D15): 1.00 | Mean value of response frequency of cold allodynia ([1]; 0.5 mg/kg, D-3/D3/D9, D15): 23.20% | Mean value of acetone-induced foot withdrawal response score [1, 8]: 0.50 | Mean value of response frequency of cold allodynia [1, 8]: 13.30% | Mean value of acetone-induced foot withdrawal response score ([1]; 2.5 mg/kg, D-3/D3/D9, D8): 3.30 | Mean value of response frequency of cold allodynia ([1]; 2.5 mg/kg, D-3/D3/D9, D8): 70.0% | Mean value of acetone-induced foot withdrawal response score ([1]; 2.5 mg/kg, D-3/D3/D9, D15): 0.70 | Mean value of response frequency of cold allodynia ([1]; 2.5 mg/kg, D-3/D3/D9, D15): 19.90% | Mean value of acetone-induced foot withdrawal response score [1, 9]: 0.90 | Mean value of response frequency of cold allodynia [1, 9]: 19.90% | Mean value of mechanical paw withdrawal threshold ([2]; 0.02 mg/kg, D-3/D3/D9/D16, D7): 8.87 ± 1.98 g | Mean value of mechanical paw withdrawal threshold ([2]; 0.02 mg/kg, D-3/D3/D9/D16, D14): 7.22 ± 0.77 g | Mean value of mechanical paw withdrawal threshold ([2]; 0.02 mg/kg, D-3/D3/D9/D16, D21): 14.22 ± 2.63 g | Mean value of mechanical paw withdrawal threshold ([2]; 0.02 mg/kg, D-3/D3/D9/D16, D-5 basal value before administration): 23.50 ± 1.68 g | Mean value of mechanical paw withdrawal threshold ([2]; 0.5 mg/kg, D-3/D3/D9/D16, D7): 7.62 ± 1.18 g | Mean value of mechanical paw withdrawal threshold ([2]; 0.5 mg/kg, D-3/D3/D9/D16, D14): 10.73 ± 1.60 g | Mean value of mechanical paw withdrawal threshold ([2]; 0.5 mg/kg, D-3/D3/D9/D16, D21): 16.37 ± 2.36 g | Mean value of mechanical paw withdrawal threshold ([2]; 0.5 mg/kg, D-3/D3/D9/D16, D-5 basal value before administration): 22.77 ± 1.71 g | mechanical paw withdrawal threshold of rats compared with the Vehicle control ([2]; summary in words): significantly increased | Mean value of response frequency of cold allodynia ([3]; 0.1 mg/kg, D-3/D3/D9, D8): 58.00±6.96% and 58.00% | Mean value of acetone-induced foot withdrawal behavior total score ([3]; 0.1 mg/kg, D-3/D3/D9, D15): 3.00 | Mean value of response frequency of cold allodynia ([3]; 0.1 mg/kg, D-3/D3/D9, D15): 42.00% | Mean value of acetone-induced foot withdrawal behavior total score [3, 7]: 0.10 | Mean value of response frequency of cold allodynia [3, 7]: 2.00% | Mean value of response frequency of cold allodynia ([3]; 0.5 mg/kg, D-3/D3/D9, D8): 44.00±7.77% and 44.00% | Mean value of acetone-induced foot withdrawal behavior total score ([3]; 0.5 mg/kg, D-3/D3/D9, D15): 2.80 | Mean value of response frequency of cold allodynia ([3]; 0.5 mg/kg, D-3/D3/D9, D15): 34.00% | Mean value of acetone-induced foot withdrawal behavior total score [3, 8]: 0.30 | Mean value of response frequency of cold allodynia [3, 8]: 4.00% | Mean value of response frequency of cold allodynia ([3]; 2.5 mg/kg, D-3/D3/D9, D8): 44.00±4.99% and 44.00% | Mean value of acetone-induced foot withdrawal behavior total score ([3]; 2.5 mg/kg, D-3/D3/D9, D15): 1.80 | Mean value of response frequency of cold allodynia ([3]; 2.5 mg/kg, D-3/D3/D9, D15): 24.00% | Mean value of acetone-induced foot withdrawal behavior total score [3, 9]: 0.30 | Mean value of response frequency of cold allodynia [3, 9]: 4.00% | Mean value of mechanical paw withdrawal threshold ([4]; 0.1 mg/kg, D-3/D3/D9, D7): 7.02 ± 1.05 g | Mean value of mechanical paw withdrawal threshold ([4]; 0.1 mg/kg, D-3/D3/D9, D14): 9.76 ± 1.10 g | Mean value of mechanical paw withdrawal threshold ([4]; 0.1 mg/kg, D-3/D3/D9, D-5 basal value before administration): 15.00 ± 0.00 g | Mean value of mechanical paw withdrawal threshold ([4]; 0.5 mg/kg, D-3/D3/D9, D7): 8.20 ± 1.78 g | Mean value of mechanical paw withdrawal threshold ([4]; 0.5 mg/kg, D-3/D3/D9, D14): 11.00 ± 0.94 g | Mean value of mechanical paw withdrawal threshold ([4]; 0.5 mg/kg, D-3/D3/D9, D-5 basal value before administration): 15.00 ± 0.00 g | Mean value of mechanical paw withdrawal threshold ([4]; 2.5 mg/kg, D-3/D3/D9, D7): 8.43 ± 0.92 g | Mean value of mechanical paw withdrawal threshold ([4]; 2.5 mg/kg, D-3/D3/D9, D14): 13.31 ± 0.76 g | Mean value of mechanical paw withdrawal threshold ([4]; 2.5 mg/kg, D-3/D3/D9, D-5 basal value before administration): 14.16 ± 0.60 g | mechanical paw withdrawal threshold of rats compared with the Vehicle control ([4]; summary in words): significantly increased | Mean value of response frequency of cold allodynia ([5]; 0.02 mg/kg, D-3/D3/D9/D16, D8): 7.27±4.07% and 7.27% | Mean value of response frequency of cold allodynia ([5]; 0.02 mg/kg, D-3/D3/D9/D16, D15): 16.36±5.92% and 16.36% | Mean value of response frequency of cold allodynia ([5]; 0.02 mg/kg, D-3/D3/D9/D16, D22): 9.09±4.15% and 9.09% | Mean value of response frequency of cold allodynia ([5]; 0.02 mg/kg, D-3/D3/D9/D16, D-4 basal value before administration): 3.64±2.44% and 3.64% | Mean value of response frequency of cold allodynia ([5]; 0.5 mg/kg, D-3/D3/D9/D16, D8): 7.27±4.07% and 7.27% | Mean value of response frequency of cold allodynia ([5]; 0.5 mg/kg, D-3/D3/D9/D16, D15): 7.27±4.07% and 7.27% | Mean value of acetone-induced foot withdrawal behavior total score ([5]; 0.5 mg/kg, D-3/D3/D9/D16, D22): 0.73 | Mean value of response frequency of cold allodynia ([5]; 0.5 mg/kg, D-3/D3/D9/D16, D22): 10.91% | Mean value of acetone-induced foot withdrawal behavior total score [5, 10]: 0.73±0.30 | Mean value of response frequency of cold allodynia [5, 10]: 10.91±4.15% | Mean value of response frequency of cold allodynia ([5]; 0.5 mg/kg, D-3/D3/D9/D16, D-4 basal value before administration): 5.45±2.82% and 5.45% | cold pain threshold of the rats compared with the vehicle control ([5]; summary in words): not significantly improved | Mean value of mechanical paw withdrawal threshold ([6]; 0.1 mg/kg, D7, paclitaxel model): 8.90 ± 1.20 g | Mean value of mechanical paw withdrawal threshold ([6]; 0.1 mg/kg, D14, paclitaxel model): 10.55 ± 1.04 g | Mean value of mechanical paw withdrawal threshold ([6]; 0.1 mg/kg, D-5 basal value before administration, paclitaxel model): 13.48 ± 1.03 g | Mean value of mechanical paw withdrawal threshold ([6]; 0.5 mg/kg, D7, paclitaxel model): 10.40 ± 1.33 g | Mean value of mechanical paw withdrawal threshold ([6]; 0.5 mg/kg, D14, paclitaxel model): 10.94 ± 1.16 g | Mean value of mechanical paw withdrawal threshold ([6]; 0.5 mg/kg, D-5 basal value before administration, paclitaxel model): 13.25 ± 0.98 g | Mean value of mechanical paw withdrawal threshold ([6]; 2.5 mg/kg, D7, paclitaxel model): 7.74 ± 1.19 g | Mean value of mechanical paw withdrawal threshold ([6]; 2.5 mg/kg, D14, paclitaxel model): 12.30 ± 0.94 g | Mean value of mechanical paw withdrawal threshold ([6]; 2.5 mg/kg, D-5 basal value before administration, paclitaxel model): 13.50 ± 0.82 g | pain threshold ([6]; 0.1-2.5 mg/kg subcutaneously every 6 days for 3 consecutive times, paclitaxel-induced rat neuropathic pain model, summary in words): preventatively increased | mechanical paw withdrawal threshold of rats compared with the Vehicle control ([6]; paclitaxel model, summary in words): significantly increased
